Where a name gives a salt, the structure may show the parent alone. Read-outs that look alike come from different tables or passages of the source.
Assays:
[1] = tested on: Meerschweinchen-Papillarmuskel; test: Contraction force of the heart on papillary muscle (negative inotropy); type: cell-based; conditions: for IC20: concentration that reduces contraction of the papillary muscle by 20 %, read-out: C20 CF
Text: Die Wirkung auf die Kontraktionskraft des Herzens wurde am Meerschweinchen-Papillarmuskel untersucht. Hämodynamische Studien wurden bei gesunden, wie auch akut infarzierten Hunden durchgeführt.

[2] = tested on: Purkinje-Fasern aus Hundeherzen; test: Electrophysiological studies on Purkinje fibres (Vmax); type: cell-based, Hund; conditions: for IC20: purkinje, read-out: C20 Vmax
Text: Die antiarrhythmische Wirksamkeit der erfindungsgemäßen Verbindungen wurde sowohl anhand von elektrophysiologischen Studien an Purkinje-Fasern aus Hundeherzen sowie mit Hilfe von Ouabain-induzierten ventrikulären Tachykardien bei Hunden bestimmt. […]
Als zusätzliches Kriterium wurde der Vorzeitigkeitsindex (Prematurity-Faktor) bestimmt, der die erwünschte Wirksamkeit der erfindungsgemäßen Verbindungen bei vorzeitigen Extrasystolen charakterisiert.

[3] = Acute toxicity LD50, rat i.v.; conditions: in vivo, iv, Ratte (i.v.), read-out: LD₅₀
Text: (§1) Dies ergibt sich aus einem Vergleich der LD₅₀-Werte bei Ratten und Mäusen, die in Tabelle (II) zusammengefaßt sind. Tabelle I

[4] = Acute toxicity LD50, mouse i.v.; conditions: in vivo, iv, Maus (i.v.), read-out: LD₅₀
Text: as §1

[5] = (% of control Vmax at cycle length 2000) / (% of control Vmax at cycle length 500) at C20 Vmax
[6] = (% of control Vmax at premature extrasystoles) / (% of control Vmax at a normal beat) at Vmax

SMILES | IC20 [1] [µM] | Rate-Faktor von Vmax [2, 5] | Prematurity Faktor Vmax [2, 6] | IC20 [2] [µM] | C20 CF [1] | C20 Vmax [2] | Prematurity Faktor Vmax [2] | Rate-Faktor von Vmax [2] | LD50 [3] [mg/kg] | LD50 [4] [mg/kg]
CCC(C)(C)NCC(O)COc1ccccc1CCC(=O)c1ccc(OC)c(OC)c1.Cl (centres unmarked) [Beispiel 2, 1-(3,4-Dimethoxyphenyl)-3-[2′-(2-hydroxy-3-tert.-pentylamino-propoxy)-phenyl]-1-propanon-hydrochlorid] | 8 | 1,27 | 1,15 | 3.6 |  |  |  |  |  | 
Cc1ccc(C(=O)CCc2ccccc2OCC(O)CNC(C)(C)C)cc1.Cl (centres unmarked) [Beispiel 44, 1-(4-Methylphenyl)-3-[2′-(2-hydroxy-3-tert.-butylamino-propoxy)-phenyl]-1-propanon-hydrochlorid] | 6 | 1,11 | 0,99 | 2.6 |  |  |  |  |  | 
Cl.O=C(CCc1ccccc1OCC(O)CNC1CCCCC1)c1ccccc1 (centres unmarked) [Beispiel 46, 1-Phenyl,-3-[2′-(2-hydroxy-3-cyclohexylamino-propoxy)-phenyl]-1-propanon-hydrochlorid] | 2 | 2,50 | 0,92 | 2.2 |  |  |  |  |  | 
CCCNCC(O)COc1ccccc1C(=O)CCc1ccccc1 (centres unmarked) [A, Propafenon, reference compound] |  |  |  |  | 5,3 µM | 3,7 µM | 0,97 | 1,08 |  | 
COc1ccc(C(=O)CCc2ccccc2OCC(O)CNCC(C)O)cc1OC (centres unmarked) [Beispiel 7, 1-(3,4-Dimethoxyphenyl)-3-[2′-(2-hydroxy-3(2˝-hydroxy-propylamino)-propoxy)-phenyl]-1-propanon-hydrochlorid] |  |  |  |  | 18,0 µM | 5,7 µM | 0,98 | 1,39 |  | 
COc1cccc(C(=O)CCc2ccccc2OCC(O)CNC(C)C)c1.Cl (centres unmarked) [Beispiel 24, 1-(3-Methoxyphenyl)-3-[2′-(2-hydroxy-3-isopropylamino-propoxy)-phenyl]-1-propanon-hydrochlorid] | 10 | 1,15 | 1,01 | 1.6 |  |  |  |  |  | 
CCCNCC(O)COc1ccccc1CCC(=O)c1cccc(OC)c1.Cl (centres unmarked) [Beispiel 26, 1-(3-Methoxyphenyl)-3-[2′-(2-hydroxy-3-n-propylamino-propoxy)-phenyl]-1-propanon-hydrochlorid] | 3 | 1,16 | 0,93 | 1.7 |  |  |  |  |  | 
COc1ccc(C(=O)CCc2ccccc2OCC(O)CNCCO)cc1OC (centres unmarked) [Beispiel 8, 1-(3,4-Dimethoxyphenyl)-3-[2′-(2-hydroxy-3(2˝-hydroxy-ethylamino)-propoxy)-phenyl]-1-propanon-hydrochlorid] |  |  |  |  | 13,0 µM | 8,3 µM | 0,97 | 1,34 |  | 
COc1ccccc1C(=O)CCc1ccccc1OCC(O)CNC(C)(C)C.Cl (centres unmarked) [Beispiel 38, 1-(2-Methoxyphenyl)-3-[2′-(2-hydroxy-3-tert.-butylamino-propoxy)-phenyl]-1-propanon-hydrochlorid] | 7 | 1,30 | 0,97 | 1.7 |  |  |  |  | 15 | 17
COc1cc(C(=O)CCc2ccccc2OCC(O)CNC(C)C)cc(OC)c1OC.Cl (centres unmarked) [Beispiel 12, 1-(3,4,5-Trimethoxyphenyl)-3-[2′-(2-hydroxy-3-isopropylamino-propoxy)-phenyl]-1-propanon-hydrochlorid] | 18 | 1,14 | 0,90 | 5.8 |  |  |  |  |  | 
COc1cc(C(=O)CCc2ccccc2OCC(O)CNC2CCCCC2)cc(OC)c1OC.Cl (centres unmarked) [Beispiel 16, 1-(3,4,5-Trimethoxyphenyl)-3-[2′-(2-hydroxy-3-cyclohexylamino-propoxy)-phenyl]-1-propanon-hydrochlorid] | 9 | 5,00 | 0,50 | 11.9 |  |  |  |  |  | 
COc1ccc(C(=O)CCc2ccccc2OCC(O)CNC(C)(C)C)cc1OC.Cl (centres unmarked) [Beispiel 5, 1-(3,4-Dimethoxyphenyl)-3-[2′-(2-hydroxy-3-tert.-butylamino-propoxy)-phenyl]-1-propanon-hydrochlorid] | 12 | 1,39 | 0,98 | 4.4 |  |  |  |  |  | 
CC(C)(C)NCC(O)COc1ccccc1CCC(=O)c1ccccc1.Cl (centres unmarked) [Beispiel 48, 1-Phenyl-3-[2′-(2-hydroxy-3-tert.-butylamino-propoxy)-phenyl]-1-propanon-hydrochlorid] | 3 | 1,18 | 0,91 | 1 |  |  |  |  |  | 
COc1ccc(C(=O)CCc2ccccc2OCC(O)CNC(C)C)cc1OC.Cl (centres unmarked) [Beispiel 4, 1-(3,4-Dimethoxyphenyl)-3-[2′-(2-hydroxy-3-isopropylamino-propoxy)-phenyl]-1-propanon-hydrochlorid] | 22 | 1,13 | 1,01 | 4.8 |  |  |  |  |  | 
Cl.O=C(CCc1ccccc1OCC(O)CN1CCCCC1)c1ccccc1 (centres unmarked) [Beispiel 47, 1-Phenyl-3-[2′-(2-hydroxy-3-piperidino-propoxy)-phenyl]-1-propanon-hydrochlorid] | 2 | 1,08 | 0,99 | 0.3 |  |  |  |  |  | 
CCCNCC(O)COc1ccccc1CCC(=O)c1ccc(OC)c(OC)c1.Cl (centres unmarked) [Beispiel 1, 1-(3,4-Dimethoxyphenyl)-3-[2′-(2-hydroxy-3-n-propylaminopropoxy)-phenyl]-1-propanon-hydrochlorid] | 15 | 5,00 | 0,50 | 12.5 |  |  |  |  | 17 | 16
COc1ccc(C(=O)CCc2ccccc2OCC(O)CN2CCCCC2)cc1OC (centres unmarked) [Beispiel 6] |  |  |  |  | 20,0 µM | 11,3 µM | 0,70 | 1,32 |  | 
CCC(CO)NCC(O)COc1ccccc1CCC(=O)c1ccc(OC)c(OC)c1 (centres unmarked) [Beispiel 9, 1-(3,4-Dimethoxyphenyl)-3-[2′-(2-hydroxy-3-(1˝-hydroxy-but-2-ylamino)-propoxy)-phenyl]-1-propanon-oxalat] |  |  |  |  | 25,0 µM | 10,2 µM | 0,97 | 1,30 |  | 
COc1cccc(C(=O)CCc2ccccc2OCC(O)CNC(C)(C)C)c1.Cl (centres unmarked) [Beispiel 27, 1-(3-Methoxyphenyl)-3-[2′-(2-hydroxy-3-tert.-butylamino-propoxy)-phenyl]-1-propanon-hydrochlorid] | 4 | 0,99 | 1,24 | 1.6 |  |  |  |  |  | 

Source: patent publication EP0296592A2, “Aminopropanol derivatives of 3-(2-hydroxyphenyl)-1-propanone, process for their preparation and medicines containing these compounds” (Helopharm W. Petrik GmbH & Co.KG., priority 1987, dated 1988)
